Results: article PMC4222410, “Gold(I)-catalysed synthesis of a furan analogue of thiamine pyrophosphate” (Beilstein Journal of Organic Chemistry, 2014)

Molecular target: T1, pyruvate decarboxylase (ZmPDC) (Zymomonas mobilis, UniProt P06672)
T1 construct: gene pdc; N-terminal His6-tag, pET28a, overexpressed in E. coli; tetramer (dimer of dimers)
Assay: coupled PDC/ADH assay (NADH, […] nm); time-course inactivation of apo-PDC and equilibrium competition with ThDP
Format: biochemical

T1 sequence (P06672 whole entry): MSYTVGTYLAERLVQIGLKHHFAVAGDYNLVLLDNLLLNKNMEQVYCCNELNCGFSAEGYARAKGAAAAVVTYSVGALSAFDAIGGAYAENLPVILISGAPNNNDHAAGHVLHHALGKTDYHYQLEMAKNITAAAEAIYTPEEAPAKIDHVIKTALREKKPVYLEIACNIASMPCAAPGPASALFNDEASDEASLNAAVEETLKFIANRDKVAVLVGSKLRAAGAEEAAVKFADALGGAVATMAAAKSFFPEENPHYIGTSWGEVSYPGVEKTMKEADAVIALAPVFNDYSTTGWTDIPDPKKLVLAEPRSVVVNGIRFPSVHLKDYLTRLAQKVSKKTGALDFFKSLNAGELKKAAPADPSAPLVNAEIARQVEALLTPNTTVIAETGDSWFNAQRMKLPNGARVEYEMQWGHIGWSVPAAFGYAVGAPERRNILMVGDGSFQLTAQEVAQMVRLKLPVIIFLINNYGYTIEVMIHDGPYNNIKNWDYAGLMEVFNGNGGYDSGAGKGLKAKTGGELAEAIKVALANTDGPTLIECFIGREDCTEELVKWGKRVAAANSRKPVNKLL

Ki: 0.0325 nM
SMILES: Cc1ncc(Cc2coc(CCOP(=O)(O)OP(=O)(O)O)c2)c(N)n1 [compound 17, furan analogue of ThDP]
